# Measured values published in patent publication US20240226076A1, “Inhibitors of Tryptases and Their Use in Treating Allergies” (The Board of Trustees of the Leland Stanford Junior …, priority 2021, published 2024).
# Key:
# KLKB1 = biological target: T1, KLKB1 (Homo sapiens, UniProt P03952); assay: Protease activity array (Reaction Biology Corp), KLKB1; assay type: biochemical
# T1 construct: purchased Reaction Biology Corp
# Protocol: (§1) Avoralstat can inhibit Tryptase-b2 and -g1 as well as it inhibits KLKB1 in vitro. Avoralstat was assessed for inhibition against a panel of recombinant proteases including 2 Tryptases (Tryptase-b2 and -g1) and KLKB1 by commercial services from Reaction Biology Corp. The Reaction Biology Corp profile tested in a 10-dose IC50, with a dose range from 38 pM to 10 μM, against 70 proteases in FIG. 1E.
# (§2) Protease activity array. […] The protease activities were monitored as a time-course measurement of the increase in fluorescence signal from fluorescently labeled peptide substrate, and initial linear portion of slope (signal/min) was analyzed.
# Tryptase-b2 = biological target: T2, Tryptase-b2 (Homo sapiens, UniProt P20231); assay: Protease activity array (Reaction Biology Corp), Tryptase-b2; assay type: biochemical
# T2 construct: purchased Reaction Biology Corp
# T2 sequence (P20231 31-275): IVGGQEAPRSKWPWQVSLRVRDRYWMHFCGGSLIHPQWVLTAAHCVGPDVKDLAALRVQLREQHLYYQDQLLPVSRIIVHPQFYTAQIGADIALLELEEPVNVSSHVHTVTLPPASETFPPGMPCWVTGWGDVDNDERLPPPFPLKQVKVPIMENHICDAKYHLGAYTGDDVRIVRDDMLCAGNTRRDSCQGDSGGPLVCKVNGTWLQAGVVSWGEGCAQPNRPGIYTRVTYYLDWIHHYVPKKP
# Protocol: as §1, §2
# Tryptase-g1 = biological target: T3, Tryptase-g1 (Homo sapiens, UniProt Q9NRR2); assay: Protease activity array (Reaction Biology Corp), Tryptase-g1; assay type: biochemical
# T3 construct: purchased Reaction Biology Corp
# T3 sequence (Q9NRR2 20-321): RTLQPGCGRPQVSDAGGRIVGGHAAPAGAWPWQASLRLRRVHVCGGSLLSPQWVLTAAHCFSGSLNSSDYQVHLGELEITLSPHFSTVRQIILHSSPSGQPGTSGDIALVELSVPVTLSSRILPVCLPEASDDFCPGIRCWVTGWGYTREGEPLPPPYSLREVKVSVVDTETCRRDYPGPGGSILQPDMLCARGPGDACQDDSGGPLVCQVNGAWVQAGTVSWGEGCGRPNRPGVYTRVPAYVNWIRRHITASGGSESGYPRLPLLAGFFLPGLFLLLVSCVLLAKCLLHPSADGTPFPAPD
# Protocol: as §1, §2
# Kallikrein-12 = biological target: T4, Kallikrein-12 (Homo sapiens, UniProt Q9UKR0); assay: Protease activity array (Reaction Biology Corp), Kallikrein-12; assay type: biochemical; conditions: recombinant protease, 10-dose IC50, fluorescently labeled peptide substrate
# T4 construct: purchased Reaction Biology Corp
# T4 sequence (Q9UKR0 18-248): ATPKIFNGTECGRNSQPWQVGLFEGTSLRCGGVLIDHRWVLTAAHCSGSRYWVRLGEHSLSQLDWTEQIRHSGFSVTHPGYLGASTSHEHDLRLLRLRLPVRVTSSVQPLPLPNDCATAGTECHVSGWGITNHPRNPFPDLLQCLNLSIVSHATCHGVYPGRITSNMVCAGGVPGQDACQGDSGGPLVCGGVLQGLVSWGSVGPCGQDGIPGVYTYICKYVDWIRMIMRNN
# Protocol: as §1, §2
# Kallikrein-14 = biological target: T5, Kallikrein-14 (Homo sapiens, UniProt Q9P0G3); assay: Protease activity array (Reaction Biology Corp), Kallikrein-14; assay type: biochemical; conditions: recombinant protease, 10-dose IC50, fluorescently labeled peptide substrate
# T5 construct: purchased Reaction Biology Corp
# T5 sequence (Q9P0G3 25-251): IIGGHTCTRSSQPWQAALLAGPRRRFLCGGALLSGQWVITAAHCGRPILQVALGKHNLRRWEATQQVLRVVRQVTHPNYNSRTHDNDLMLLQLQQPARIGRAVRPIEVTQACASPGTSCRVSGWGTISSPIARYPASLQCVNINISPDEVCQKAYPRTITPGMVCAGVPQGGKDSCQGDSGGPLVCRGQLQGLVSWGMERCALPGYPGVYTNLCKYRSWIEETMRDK
# Protocol: as §1, §2
# [1] = oral drug, phase III clinical trials for hereditary angioedema; cited from earlier work
# T1 sequence (P03952 20-638): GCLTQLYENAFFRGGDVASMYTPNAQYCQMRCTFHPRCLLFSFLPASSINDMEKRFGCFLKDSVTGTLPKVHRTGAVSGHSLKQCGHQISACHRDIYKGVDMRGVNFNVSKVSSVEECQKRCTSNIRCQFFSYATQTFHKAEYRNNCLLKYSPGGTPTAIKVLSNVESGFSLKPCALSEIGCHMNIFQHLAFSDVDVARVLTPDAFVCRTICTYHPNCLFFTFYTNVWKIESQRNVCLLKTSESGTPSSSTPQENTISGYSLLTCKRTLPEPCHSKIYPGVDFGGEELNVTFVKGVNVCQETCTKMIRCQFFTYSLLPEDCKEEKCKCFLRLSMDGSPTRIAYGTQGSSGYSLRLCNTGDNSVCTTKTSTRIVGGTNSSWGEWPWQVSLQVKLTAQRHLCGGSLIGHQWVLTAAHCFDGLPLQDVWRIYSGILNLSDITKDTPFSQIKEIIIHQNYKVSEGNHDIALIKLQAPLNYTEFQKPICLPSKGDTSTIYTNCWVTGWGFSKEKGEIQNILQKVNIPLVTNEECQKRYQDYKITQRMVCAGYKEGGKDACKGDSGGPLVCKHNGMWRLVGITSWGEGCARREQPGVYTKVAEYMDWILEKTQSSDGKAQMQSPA
compound,measurement,setting,value
C=Cc1cc(C(=O)Nc2ccc(C(=N)N)cc2)c(-c2ccc(C(=O)NCC3CC3)nc2C(=O)O)cc1OC [Avoralstat],IC50,KLKB1,0.13 nM
same,IC50,Tryptase-b2,0.99 nM
same,IC50,Tryptase-g1,0.93 nM
same,inhibition,Kallikrein-12,sub-nanomolar inhibition
same,inhibition,Kallikrein-14,sub-nanomolar inhibition
same,clinical safety,[1],clinically proven to be safe
